Test results from patent US20080138834A1, “Cellular antagonists of GPCR physiology” (Institute Pasteur Korea, priority 2006, published 2008).
“Also recorded” adds a separate entry of the source. Where two headings read alike, the source gives them in different places.

Assays:
HeLa cells = assay: Housekeeping endocytosis assay (BODIPY-FL dextran internalization); assay type: cell-based
rat thoracic aorta = assay: Ex-vivo rat thoracic aorta constriction-relaxation model; settings: 10 μM compound 30 min, then 40 nM endothelin; normalized to noradrenalin contraction
Method: As previously described, male rats (Sprague-Dawley) weighing 300 to 400 g were anesthetized with sodium pentobarbital (50 mg/kg i.p.), and thoracic aorta was removed, cleaned of fat and connective tissue placed in Krebs bicarbonate solution (118 mM NaCl; 4.7 mM KCl; 25 mM NaHCO3; 2.5 mM CaCl2; 1.2 mM KH2PO4; 1.2 mM MgSO4; 11 mM glucose) bubbled with 95% O2 and 5% CO2^39,40. The whole aorta was cut along a close spiral to produce a strip of 5 to 6 cm long. The strip was mounted on a Grass force displacement transducer at a tension of 2 grams and placed in a 25 ml chamber maintained at 34° C. Following mounting of aorta strip on transducer, noradrenalin was added to a final concentration of 5 μM and increase of tension-constriction was recorded for 20 min. Subsequently, the noradrenalin was washed with 16 chamber volumes (400 ml) until tension returned to 2 grams. […] Tension was recorded throughout the experiment. […]
To correlate the effect of kinase inhibitors that perturb ETAR intracellular pathway and cAMP production to a physiological relevance we have examined compound effect(s) on the ex-vivo rat thoracic aorta constriction-relaxation model (^39, 40). […] Contractile responses were assessed after aortal strips were treated with 10 μM Gö6976, 10 μM Erbstatin A or 10 μM H-89 for 30 minutes followed by treatment with Endothelin. […]

[1] = test system: ETAR: GFP expressing cells; assay: Single cell visual screening: red fluorescent dextran internalization in ETAR:GFP expressing cells; assay type: cell-based; settings: 10 μM compound, 10 min red fluorescent dextran
Method: Single cell differential screening. […] (b) 10 μM Erbstatin A. (c) 10 μM H-89 (d) DMSO (e) 40 nM endothelin-1 alone. Confocal images are from a 1 μm Z section. […] Scale bar 5 μm.
The effect of the 3 kinase inhibitors affecting ETAR on receptor activation and housekeeping endocytosis were simultaneously imaged in ETAR: GFP expressing cells by internalization of red fluorescent dextran (FIG. 3). […] Thus, inhibition of protein kinase A and C second messenger activated kinases potently altered ETAR GPCR internalization but left housekeeping endocytosis unaffected.

[2] = test system: M1 muscarinic acetylcholine receptor (M1AR); assay: Agonist-induced M1AR endocytosis in polarized MDCK cells; assay type: cell-based; settings: 10 μM compound, vs untreated agonist stimulated control
Method: Sensitivity of GPCR internalization to kinase inhibitors acting on ETAR endocytosis. (a) Fully polarized MDCK cells expressing the M1AR were treated with 100 nM carbachol, DMSO, or compounds then fixed and stained with antibodies against the M1AR epitope tag (green) or the GP130 apical plasma marker (red). Cells were pretreated with compounds: 10 μM RO 31 8220, 10 μM Erbstatin A, 10 μM H-89, with 100 nM agonist, agonist alone or DMSO. Scale bar: 20 μm. (b) HEK293T cells expressing a human kappa Opioid receptor fusion to the green fluorescent protein were treated with 10 μM Gö 6976, 10 μM Erbstatin A, 10 μM H-89, 10 μM KT-5720 with 300 nM agonist, agonist alone or DMSO. Scale bar 20 μm. (c) Quantification of kappa Opioid receptor internalization (endosomes/cell) after compound treatment and agonist treatment.
If the involvement of second messenger kinases in agonist induced endocytosis of the ETAR was a generic feature of Gq coupled receptor activation, it may be expected that the kinase inhibitors affecting ETAR endocytosis may have effects on related receptors or related receptors in other cell lines. The kinase inhibitors that disrupted agonist induced ETAR endocytosis were assayed on agonist-induced endocytosis of the Gq/11 coupled M1 muscarinic acetylcholine receptor (M1AR). […]

[3] = test system: human kappa Opioid receptor; assay type: cell-based
cAMP = cAMP production after ET-1 stimulation, indirect ELISA; assay type: cell-based; settings: for effect on intra-cellular cAMP after ET-1 stimulation: 10 μM compound, 40 nM ET-1
Method: cAMP production requires sequential G-protein activation.
All fine chemicals were purchased from Sigma-Aldrich. Fluorophores and their reactive forms were purchased from Molecular Probes (Eugene, USA). DRAQ5 was from BioStatus (Shepshed, UK). 40 kDa BODIPY-F1-dextran was synthesized from amino dextran using standard protocols. […] Kinase and phosphatase inhibitors were purchased as 95-99% pure 10 mM stock solutions in dimethylsulfoxide or water (Biomol Hamburg, Germany). Stock solutions and formatted assay plates were stored at −20° C. cAMP was measured by indirect ELISA (R & D systems, MN USA) following the manufacturers protocol for cAMP acetylation, and a cAMP standard.
GPCRs can couple to multiple G-proteins and switching between G-proteins is generally mediated by protein phosphorylation^36-38. We assessed the importance of Gq coupling and PKC activity in the generation of intra-cellular cAMP through Gs following agonist stimulation.

[4] = 10 μM compound, fluorescent dextran uptake

`CC(C)(C)c1cc(/C=C(\C#N)C(N)=S)cc(C(C)(C)C)c1O` [AG-879] was tested, and the “effect on housekeeping endocytosis (integrated intensity per cell)” value (shortened to “effect … (integrated intensity per cell)”) (HeLa cells; 10 μM compound, data not shown) was “reduced” and the “effect on housekeeping endocytosis (number of endosomes)” value (shortened to “effect … (number of endosomes)”) (HeLa cells; [4]) was “reduced the number of endosomes”.

For `CN(C)CCCn1cc(C2=C(c3c[nH]c4ccccc34)C(=O)NC2=O)c2ccccc21` [GF 109203X], the “effect … (integrated intensity per cell)” value (HeLa cells) was “reduced” and the “effect … (number of endosomes)” value (HeLa cells) was “reduced the number of endosomes; also recorded: blocked”.

With `Cn1c2ccccc2c2c3c(c4c5ccccc5n(CCC#N)c4c21)CNC3=O` [Gö 6976] the “endothelin dependent aortal strip contraction vs endothelin alone” value (rat thoracic aorta) was “increased contraction”.

With `CC1CNCCN1S(=O)(=O)c1cccc2cnccc12` (stereo not shown) [H7] the “effect … (number of endosomes)” value (HeLa cells; [4]) was “no significant effect”.

In the case of `O=S(=O)(NCCNC/C=C/c1ccc(Br)cc1)c1cccc2cnccc12` [H-89], the “effect … (number of endosomes)” value (HeLa cells; [4]) is reported as “None of these compounds had a measurable effect”, the “housekeeping endocytosis, single cell imaging” value [1] is reported as “unaltered” and the “agonist-induced M1AR endocytosis” value [2] is reported as “unaffected”. The “effect on kOPr internalization” value [3] was “moderate”, the “effect on intra-cellular cAMP after ET-1 stimulation” value (cAMP) was “markedly increased cAMP” and the “increase of cellular cAMP” value (cAMP; PKA inhibition with H-89, endothelin stimulated) was “two-fold”. For the same compound, the “endothelin dependent aortal strip contraction vs endothelin alone” value (rat thoracic aorta) was “significantly lower constriction”.

For `CCCCCCOC(=O)[C@]1(O)C[C@@H]2O[C@@]1(C)n1c3ccccc3c3c4c(c5c6ccccc6n2c5c31)C(=O)NC4` [KT5720], the “effect on kOPr internalization” value [3] was “pronounced stimulation of receptor uptake”.

In the case of `CCCCCCCCCCCCCCCC(=O)OC(CC(=O)O)C[N+](C)(C)C.[Cl-]` (stereo not drawn) [Palmitoyl DL carnitine chloride], the “effect … (number of endosomes)” value (HeLa cells; [4]) is reported as “no significant effect”.

With `Cn1cc(C2=C(c3cn(CCCSC(=N)N)c4ccccc34)C(=O)NC2=O)c2ccccc21` [Ro 31-8220] the “effect … (number of endosomes)” value (HeLa cells; [4]) was “None of these compounds had a measurable effect”, the “effect … (number of endosomes)” value (HeLa cells; 10 μM compound, fluorescent dextran uptake, listed as Ro 31 8220) was “no significant effect” and the “housekeeping endocytosis, single cell imaging” value [1] was “unaffected”. For the same compound, the “agonist-induced M1AR endocytosis” value [2] was “unaffected” and the “effect on intra-cellular cAMP after ET-1 stimulation” value (cAMP) was “blocked cAMP production”.

For `CC[C@H](C)[C@H](NC(=O)[C@H](CC(=O)O)NC(=O)[C@H](CC(C)C)NC(=O)[C@H](Cc1c[nH]cn1)NC(=O)[C@@H]1CSSC[C@H](N)C(=O)N[C@@H](CO)C(=O)N[C@H]2CSSC[C@H](NC(=O)[C@H](CCC(=O)O)NC(=O)[C@H](CCCCN)NC(=O)[C@H](CC(=O)O)NC(=O)[C@H](CCSC)NC(=O)[C@H](CC(C)C)NC(=O)[C@H](CO)NC(=O)[C@H](CO)NC2=O)C(=O)N[C@@H](C(C)C)C(=O)N[C@@H](Cc2ccc(O)cc2)C(=O)N[C@@H](Cc2ccccc2)C(=O)N1)C(=O)N[C@H](C(=O)N[C@@H](Cc1c[nH]c2ccccc12)C(=O)O)[C@@H](C)CC` [endothelin-1], the “intra-cellular cAMP after stimulation with ET-1 alone” value (cAMP; 40 nM ET-1, after 10 min) was “robust increase in intra-cellular cAMP” and the “time of peak in cAMP production following stimulation” value (cAMP; endothelin stimulation) was 20 min.

In the case of `Cc1cc(O)c2c(=O)c3c(O)cc(O)c4c5c(O)cc(O)c6c(=O)c7c(O)cc(C)c8c1c2c(c34)c(c78)c65` [hypericine], the “housekeeping endocytosis compared to control” value (HeLa cells) is reported as 0.2 fold.

In the case of `CC(=O)c1c(O)c(C)c(O)c(Cc2c(O)c3c(c(C(=O)/C=C/c4ccccc4)c2O)OC(C)(C)C=C3)c1O` [rottlerin], the “effect … (number of endosomes)” value (HeLa cells) is reported as “no effect”.

In the case of `CN[C@@H]1C[C@H]2O[C@@](C)([C@@H]1OC)n1c3ccccc3c3c4c(c5c6ccccc6n2c5c31)C(=O)NC4` [staurosporine], the “effect … (integrated intensity per cell)” value (HeLa cells; 10 μM compound, data not shown) is reported as “reduced” and the “effect … (number of endosomes)” value (HeLa cells; [4]) is reported as “reduced the number of endosomes; also recorded: inhibited”.

For `CC(C)(C)c1cc(C=C(C#N)C#N)cc(C(C)(C)C)c1O` [tyrphostin 9], the “effect … (integrated intensity per cell)” value (HeLa cells; 10 μM compound, data not shown) was “reduced” and the “effect … (number of endosomes)” value (HeLa cells; [4]) was “reduced the number of endosomes”.
